Data from PubChem BioAssay AID248 (DTP/NCI, 2004).
Where “and” joins values, the source holds several entries; their conditions need not be identical. Equal entries are not always repeated. Inconclusive results and toxic doses are left out. No stated cut-off is given here; in the data, active means T/C of 150% or more; inactive means T/C below 125%.

System: L1210 leukemia ip in BDF1 mice, survival T/C
Experiment: NCI In Vivo Anticancer Drug Screen. Data for tumor model L1210 Leukemia (intraperitoneal) in B6D2F1 (BDF1) mice
Conditions: endpoint: mean survival time, higher = longer survival
Procedure, shortened: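 Tumor cells were implanted, animals were treated, and survival was followed. The result divides the treated measurement by the vehicle-control measurement.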

[1] = dose: 100.0 mg/kg/injection, schedule: Q01DX001 (ip), vehicle: saline
[2] = dose: 200.0 mg/kg/injection, schedule: Q01DX001 (ip), vehicle: saline
[3] = dose: 400.0 mg/kg/injection, schedule: Q01DX001 (ip), vehicle: saline
[4] = dose: 100.0 mg/kg/injection, schedule: Q04DX002 (ip), vehicle: Klucel (hydroxypropylcellulose) (HPC)
[5] = dose: 200.0 mg/kg/injection, schedule: Q04DX002 (ip), vehicle: Klucel (hydroxypropylcellulose) (HPC)
[6] = dose: 400.0 mg/kg/injection, schedule: Q04DX002 (ip), vehicle: Klucel (hydroxypropylcellulose) (HPC)
[7] = dose: 100.0 mg/kg/injection, schedule: Q04DX003 (ip), vehicle: saline with Tween-80
[8] = dose: 200.0 mg/kg/injection, schedule: Q04DX003 (ip), vehicle: saline with Tween-80
[9] = dose: 400.0 mg/kg/injection, schedule: Q04DX003 (ip), vehicle: saline with Tween-80
[10] = dose: 6.25 mg/kg/injection, schedule: Q01DX009 (ip), vehicle: saline
[11] = dose: 12.5 mg/kg/injection, schedule: Q01DX009 (ip), vehicle: saline
[12] = dose: 25.0 mg/kg/injection, schedule: Q01DX009 (ip), vehicle: saline
[13] = dose: 100.0 mg/kg/injection, schedule: Q01DX001 (ip), vehicle: saline with Tween-80
[14] = dose: 200.0 mg/kg/injection, schedule: Q01DX001 (ip), vehicle: saline with Tween-80
[15] = dose: 400.0 mg/kg/injection, schedule: Q01DX001 (ip), vehicle: saline with Tween-80
[16] = dose: 100.0 mg/kg/injection, schedule: Q01DX009 (ip), vehicle: saline with Tween-80
[17] = dose: 200.0 mg/kg/injection, schedule: Q01DX009 (ip), vehicle: saline with Tween-80
[18] = dose: 400.0 mg/kg/injection, schedule: Q01DX009 (ip), vehicle: saline with Tween-80
[19] = dose: 100.0 mg/kg/injection, schedule: Q01DX009 (ip), vehicle: Klucel (hydroxypropylcellulose) (HPC)
[20] = dose: 200.0 mg/kg/injection, schedule: Q01DX009 (ip), vehicle: Klucel (hydroxypropylcellulose) (HPC)
[21] = dose: 400.0 mg/kg/injection, schedule: Q01DX009 (ip), vehicle: Klucel (hydroxypropylcellulose) (HPC)

Measured: T/C

CCN(CC)c1ccc(N=C2C=C(C(=O)Nc3ccc(C(=O)O)cc3)C(=O)c3ccccc32)c(C)c1
inactive: [1] 102 % of control | [2] 100 % of control | [3] 102 % of control

CC(=O)O[C@H]1CC[C@@]2(C)[C@@H](CC[C@@H]3[C@@H]2CC[C@]2(C)[C@@H](C(C)=O)CC[C@@H]32)C1
inactive: [4] 96 % of control | [5] 96 % of control | [6] 96 % of control

Fc1ccc(NC(=S)Nc2ccc(F)cc2)cc1
inactive: dose: 15.0 mg/kg/injection, schedule: Q01DX Z (ip), vehicle: carboxymethylcellulose (CMC) 98 % of control | dose: 30.0 mg/kg/injection, schedule: Q01DX Z (ip), vehicle: carboxymethylcellulose (CMC) 101 % of control | dose: 50.0 mg/kg/injection, schedule: Q01DX001 (ip), vehicle: saline 117 % of control | dose: 60.0 mg/kg/injection, schedule: Q01DX Z (ip), vehicle: carboxymethylcellulose (CMC) 101 % of control and 104 % of control | [1] 113 % of control | dose: 120.0 mg/kg/injection, schedule: Q01DX Z (ip), vehicle: carboxymethylcellulose (CMC) 101 % of control and 106 % of control | [2] 120 % of control | dose: 240.0 mg/kg/injection, schedule: Q01DX Z (ip), vehicle: carboxymethylcellulose (CMC) 100 % of control | dose: 240.0 mg/kg/injection, schedule: Q01DX Z (oral), vehicle: carboxymethylcellulose (CMC) 95 % of control | dose: 480.0 mg/kg/injection, schedule: Q01DX Z (ip), vehicle: carboxymethylcellulose (CMC) 106 % of control | dose: 480.0 mg/kg/injection, schedule: Q01DX Z (oral), vehicle: carboxymethylcellulose (CMC) 104 % of control | dose: 960.0 mg/kg/injection, schedule: Q01DX Z (oral), vehicle: carboxymethylcellulose (CMC) 107 % of control | dose: 1920.0 mg/kg/injection, schedule: Q01DX Z (oral), vehicle: carboxymethylcellulose (CMC) 100 % of control

CCOC(=O)Nc1cc(Cl)c([N+](=O)[O-])c(N)n1
inactive: dose: 50.0 mg/kg/injection, schedule: Q01DX001 (ip), vehicle: other 106 % of control | dose: 100.0 mg/kg/injection, schedule: Q01DX001 (ip), vehicle: other 101 % of control | [7] 92 % of control | dose: 200.0 mg/kg/injection, schedule: Q01DX001 (ip), vehicle: other 109 % of control | [8] 116 % of control | dose: 400.0 mg/kg/injection, schedule: Q01DX001 (ip), vehicle: other 104 % of control | [9] 104 % of control

C/C(=N/N(C)C)c1ccc(Br)cc1
inactive: [10] 100 % of control | [11] 94 % of control | [12] 92 % of control | dose: 50.0 mg/kg/injection, schedule: Q01DX009 (ip), vehicle: Klucel (hydroxypropylcellulose) (HPC) 108 % of control

Oc1c2ccsc2cc2ccsc12
inactive: [13] 94 % of control | [14] 94 % of control | [15] 91 % of control

CCC1=[N+](C)C(C)(C)CC(C)O1 (stereo not drawn)
inactive: [10] 102 % of control | dose: 6.25 mg/kg/injection, schedule: Q04DX003 (ip), vehicle: saline with Tween-80 98 % of control | [11] 102 % of control | dose: 12.5 mg/kg/injection, schedule: Q04DX003 (ip), vehicle: saline with Tween-80 94 % of control | [12] 107 % of control | dose: 25.0 mg/kg/injection, schedule: Q04DX003 (ip), vehicle: saline with Tween-80 94 % of control | dose: 50.0 mg/kg/injection, schedule: Q01DX009 (ip), vehicle: saline 102 % of control | dose: 50.0 mg/kg/injection, schedule: Q04DX003 (ip), vehicle: saline with Tween-80 94 % of control and 95 % of control

c1ccc2c(c1)C1CCC2c2ccccc21
inactive: [16] 106 % of control | [7] 95 % of control | [17] 102 % of control | [8] 98 % of control | [18] 97 % of control | [9] 92 % of control

CCOC(=O)C1(c2cc(NS(=O)(=O)c3ccccc3)ccc2O)CCCCC1=O (stereo not drawn)
inactive: dose: 50.0 mg/kg/injection, schedule: Q01DX001 (ip), vehicle: saline sonified 97 % of control | dose: 100.0 mg/kg/injection, schedule: Q01DX001 (ip), vehicle: saline sonified 93 % of control | dose: 200.0 mg/kg/injection, schedule: Q01DX001 (ip), vehicle: saline sonified 94 % of control

Cc1ccc(S(=O)(=O)OCC2OCOC2C2OCOC2C)cc1 (stereo not drawn)
inactive: [13] 104 % of control | [14] 93 % of control | [15] 97 % of control

COc1cc(C(C)=O)cc([N+](=O)[O-])c1O
inactive: [7] 107 % of control | [8] 105 % of control

Cc1c2c(cc3c1sc1ccccc13)CCCC2=O
inactive: [1] 101 % of control | [2] 94 % of control | [3] 101 % of control

Cc1cc(N=Cc2ccc(Cl)cc2)c(N=Cc2ccc(Cl)cc2)cc1C
inactive: dose: 100.0 mg/kg/injection, schedule: Q01DX005 (ip), vehicle: Klucel (hydroxypropylcellulose) (HPC) 99 % of control | [19] 108 % of control | [4] 95 % of control | dose: 200.0 mg/kg/injection, schedule: Q01DX005 (ip), vehicle: Klucel (hydroxypropylcellulose) (HPC) 96 % of control | [20] 115 % of control | [5] 95 % of control | dose: 400.0 mg/kg/injection, schedule: Q01DX005 (ip), vehicle: Klucel (hydroxypropylcellulose) (HPC) 92 % of control | [21] 97 % of control | [6] 95 % of control

C[C@]12CC[C@H]3[C@@H](CC[C@@H]4C[C@@H](O)CC[C@@]43C=O)[C@]13O[C@@H]3CC2c1ccc(=O)oc1 (stereo partly drawn)
inactive: dose: 0.25 mg/kg/injection, schedule: Q01DX009 (ip), vehicle: Klucel (hydroxypropylcellulose) (HPC) 100 % of control | dose: 0.5 mg/kg/injection, schedule: Q01DX009 (ip), vehicle: Klucel (hydroxypropylcellulose) (HPC) 100 % of control | dose: 1.0 mg/kg/injection, schedule: Q01DX009 (ip), vehicle: Klucel (hydroxypropylcellulose) (HPC) 100 % of control

O=P1(O)[O][Sn]([c]2ccccc2)([c]2ccccc2)[O]1
inactive: dose: 6.25 mg/kg/injection, schedule: Q01DX009 (ip), vehicle: saline with Tween-80 97 % of control | dose: 12.5 mg/kg/injection, schedule: Q01DX009 (ip), vehicle: saline with Tween-80 97 % of control

O=C1c2ccccc2S(=O)N1OCc1ccccc1 (stereo not drawn)
inactive: [4] 88 % of control | [5] 100 % of control

COc1ccc(C(=O)c2ccccc2)c(OC(=O)Nc2ccc(Cl)cc2)c1
inactive: [19] 109 % of control | [20] 105 % of control | [21] 100 % of control

COc1ccccc1-n1c(O)c(N=Nc2ccc(C)cc2)c(=O)n(-c2ccccc2)c1=S
inactive: dose: 100.0 mg/kg/injection, schedule: Q01DX001 (ip), vehicle: Klucel (hydroxypropylcellulose) (HPC) 103 % of control | dose: 200.0 mg/kg/injection, schedule: Q01DX001 (ip), vehicle: Klucel (hydroxypropylcellulose) (HPC) 97 % of control | dose: 400.0 mg/kg/injection, schedule: Q01DX001 (ip), vehicle: Klucel (hydroxypropylcellulose) (HPC) 91 % of control

CN(N=O)C(=O)NN(C)C(=O)N(C)N=O
inactive: dose: 50.0 mg/kg/injection, schedule: Q01DX001 (ip), vehicle: carboxymethylcellulose (CMC) 114 % of control | dose: 200.0 mg/kg/injection, schedule: Q01DX001 (ip), vehicle: carboxymethylcellulose (CMC) 121 % of control | dose: 300.0 mg/kg/injection, schedule: Q01DX001 (ip), vehicle: carboxymethylcellulose (CMC) 114 % of control | dose: 400.0 mg/kg/injection, schedule: Q01DX001 (ip), vehicle: carboxymethylcellulose (CMC) 121 % of control

Clc1ccc(N=NNc2ccc(Cl)cc2)cc1
inactive: [16] 91 % of control | [7] 96 % of control | [17] 92 % of control | [8] 105 % of control | [18] 92 % of control | [9] 92 % of control

CCCCN=C(N)c1ccc(S(=O)(=O)N=C(N)N)cc1
inactive: [1] 97 % of control | [2] 101 % of control | [3] 97 % of control
